Source: patent US20240043476A1, “ANTI-TUMOR PEPTIDE AND USE THEREOF” (National University Corporation Hokkaido University, priority 2020, published 2024)

How the values were obtained:
[1] = test system: human prostate cancer cell line DU145; experiment: Inhibition of proliferation of prostate cancer cell line DU145 (CellTiter Glo luminescence); format: cell-based; conditions: DU145 cells; for inhibitory activity against cell proliferation: cell-penetrating peptide substituted or removed, same way as Example 2; for cell proliferation (without synthetic peptide set to 100): final concentration 30 μM
Protocol: (§1) Human prostate cancer cell line DU145 was cultured in DMEM containing 10% fetal cattle serum (FCS) at 37° C. and 5% CO2 with passaging. DU145 cells were seeded into 96-well plates at 5000 cells/well, then cultured at 37° C. for 24 hours, and then further cultured for 48 hours in 10% FCS-containing DMEM that contains each of the synthesized peptides of Example 1 at a final concentration of 1 μM, 10 μM, 50 μM or 100 μM. The medium was discarded after culturing, and then 25 μL of 50-fold diluted solution of CellTiter Glo Reagent (Promega) (diluted with PBS (−) containing 0.1% NP-40) was added to each well. Next, the resulting solution was shaken at room temperature for 10 minutes, and then luminescence level was measured with a plate reader (Infinite M200, Tecan). A relative luminescence level of each synthetic peptide was calculated when the average luminescence level measured for control cells cultured in 10% FCS-containing DMEM without any synthetic peptide was set to 100, and was used as an index of cell proliferation.
The peptides listed in Table 2 below were designed and evaluated for their inhibitory activities against proliferation of DU145 cells in the same way as in Example 2. Each of the peptides 4T-2-D-1-4, 4H-2-D-1-4 and 4F-2-D-1-4 is a peptide in which the octaarginine sequence of the peptide 42-D-1-4 is substituted with an amino acid sequence of another cell-penetrating peptide, and each has, from the N-terminal side, an amino acid sequence of TAT peptide, HTLV-II-Rex or FHV coat (35-49), a linker sequence of one Gly residue, and an amino acid sequence corresponding to G45-Y51 of the PH domain. The peptides #R8(−)-2-D-1, #R8(−)-2-D-1-4 and #R8(−)-6-A-2 are peptides with the octaarginine sequence and the linker sequence removed from the peptides #2-D-1, #2-D-1-4 and #6-A-2, respectively.
The peptides listed in Table 3 below were designed and evaluated for their inhibitory activities against proliferation of DU145 cells, in the same way as in Example 2 except that the final concentrations of the synthetic peptides were set to 3 μM, 10 μM and 30 μM. The peptides #2-D-1-4-1A to #2-D-1-4-7A are peptides in which GLTIYFY (SEQ ID NO: 36) of peptide #2-D-1-4 was substituted with Ala one by one from the N-terminal side.

[2] = test system: human glioma cell line U251; experiment: Inhibition of proliferation of U251 cells; format: cell-based; conditions: U251, same manner as Example 2
[3] = test system: human lung cancer cell line A549; experiment: Inhibition of proliferation of A549 cells; format: cell-based; conditions: A549, same manner as Example 2
[4] = test system: human melanoma cell line A375; experiment: Inhibition of proliferation of A375 cells; format: cell-based; conditions: A375, same manner as Example 2
Protocol: as §1, with “proliferation. […]” for “proliferation.”

DU145 cells = experiment: Antitumor effect in DU145 tumor-bearing model; format: in vivo, BALB/c nude mice; conditions: 2 mg/body intratumoral
Protocol: DU145 cells (5.0×10^6 cells) were injected subcutaneously into right flank of BALB/c nude mice (female, 4 weeks old). On days 14, 17 and 20 after implantation, solvent (5% DMSO, control) or the synthetic peptide #2-D-1-4 (2 mg/body) was intratumorally administered. Tumor diameters were measured with calipers every 3 days starting on day 14 after implantation, and tumor volumes (longer diameter×shorter diameter×shorter diameter/2) were calculated. The mice were euthanized on day 32 after implantation, then tumor mass were collected and their weights were measured.

[5] = test system: human pancreatic cancer cell line BxPC3; experiment: Inhibition of proliferation of BxPC3 cells; format: cell-based; conditions: BxPC3, same manner as Example 2
Survivin = experiment: Real-time PCR of Survivin gene expression in DU145 cells; format: cell-based, human; conditions: peptide 10 μM, 15 and 30 minutes
Protocol: (§2) DU145 cells, cultured in DMEM containing 10% fetal cattle serum (FCS) at 37° C. and 5% CO2 with passage, were seeded into 6-well plates at 5.0×10^5 cells/well, and then cultured at 37° C. for 24 hours. The cells were incubated for 2 hours in serum-free DMEM. Then, the synthetic peptide #2-D-1-4 (final concentration 10 μM) was added, and cells were collected 15 minutes later and 30 minutes later. Cells without addition of any synthetic peptide were prepared in the same way.
(§3) Total RNA was extracted from the cells with use of TRIzol (Thermo Fisher Scientific). cDNA was synthesized from the total RNA with use of ReverTra Ace (TOYOBO) and random hexamer primers. Real-time PCR was carried out with the following primer sets and MX3000P (Agilent Technologies, Inc.) to measure the relative gene expression levels of Cyclin D1 (Ccnd1), which is associated with cell proliferation, and Survivin, which is associated with cancer cell survival.

Cyclin D1 (Ccnd1) = experiment: Real-time PCR of Cyclin D1 gene expression in DU145 cells; format: cell-based, human; conditions: peptide 10 μM, 15 and 30 minutes
Protocol: as §2, §3

[6] = test system: human liver cancer cell line Hep3B; experiment: Inhibition of proliferation of Hep3B cells; format: cell-based; conditions: same manner as Example 2
[7] = biological target: T1, EGFR/STAP-2 interaction (EGFR-HA and GST-STAP-2) (Homo sapiens, UniProt P00533, C187G/DEL142-186); experiment: GST pull-down and immunoblot of EGFR/STAP-2 interaction; format: binding; conditions: HEK293T lysate, peptide 1 μM or 50 μM, 4° C. 1 hour
T1 construct: expressed in transfected cells; host or cells: HEK293T

[8] = test system: human breast cancer cell line T47D; experiment: Inhibition of proliferation of T47D cells; format: cell-based; conditions: cultured 96 hours with peptide
[9] = test system: human cervical cancer cell line HeLa; experiment: Inhibition of proliferation of HeLa cells; format: cell-based; conditions: same manner as Example 2

GRKKRRQRRRPPQGGLTIYFY [#T-2-D-1-4]
inhibitory activity against cell proliferation [1]: the same extent of inhibitory activity against cell proliferation as that of the peptide #2-D-1-4

RRRRNRTRRNRRRVRGGLTIYFY [#F-2-D-1-4]
inhibitory activity against cell proliferation [1]: the same extent of inhibitory activity against cell proliferation as that of the peptide #2-D-1-4

VVELRVP [#R8(−)-6-A-2]
inhibitory activity against cell proliferation [1]: none

RRRRRRRRGG GLAIYFY (RRRRRRRRGGGLAIYFY) [#2-D-1-4-3A]
cell proliferation (without synthetic peptide set to 100) [1]: approximately 50%

RRRRRRRRGG GLTIYFY (RRRRRRRRGGGLTIYFY) [#2-D-1-4]
activity to inhibit proliferation [2]: exhibited the activity to inhibit proliferation
activity to inhibit proliferation [3]: exhibited the activity to inhibit proliferation
activity to inhibit proliferation [4]: exhibited the activity to inhibit proliferation
final weight of the tumor mass compared to the control (DU145 cells; days 14, 17 and 20, day 32 after implantation): significant reduction
tumor volume compared to the control (DU145 cells; days 14, 17 and 20 after implantation): inhibition of increase in tumor volume
activity to inhibit proliferation [5]: exhibited the activity to inhibit proliferation
gene expression level of Survivin (Survivin): reduced
gene expression level of Ccnd1 (Cyclin D1 (Ccnd1)): reduced
activity to inhibit proliferation [6]: exhibited the activity to inhibit proliferation
complex between EGFR-HA and GST-STAP-2 in pull-down fraction [7]: not detected
activity to inhibit proliferation [8]: exhibited the activity to inhibit proliferation
activity to inhibit proliferation [9]: exhibited the activity to inhibit proliferation

QGLTIYFYN [#R8(−)-2-D-1]
inhibitory activity against cell proliferation [1]: none

GLTIYFY [#R8(−)-2-D-1-4]
inhibitory activity against cell proliferation [1]: none

RRRRRRRRGG GLTIYAY (RRRRRRRRGGGLTIYAY) [#2-D-1-4-6A]
cell proliferation (without synthetic peptide set to 100) [1]: approximately 50%

TRRQRTRRARRNRGGLTIYFY [#H-2-D-1-4]
inhibitory activity against cell proliferation [1]: the same extent of inhibitory activity against cell proliferation as that of the peptide #2-D-1-4

RRRRRRRRGG GATIYFY (RRRRRRRRGGGATIYFY) [#2-D-1-4-2A]
cell proliferation (without synthetic peptide set to 100) [1]: approximately 50%
